Tested on: human myeloma cell line MM.1S
Assay: SILAC acetylated-lysine peptide profiling, HDAC inhibitor vs DMSO (light/heavy ratio)
Type: cell-based
Description: An embodiment of the invention comprises utilizing the SILAC method in order to quantitate changes in protein expression between two or more populations of cells. The SILAC method is a technique based on mass spectrometry that detects differences in protein abundance among samples using non-radioactive isotopic labeling. The SILAC method is known in the art, and described in detail in Ong et al., “Stable Isotope Labeling by Amino Acids in Cell Culture, SILAC, as a Simple and Accurate Approach to Expression Proteomics”, Molecular & Cellular Proteomics, vol. 1, pp. 376-386 (2002), which is incorporated herein by reference in its entirety.
Briefly, the SILAC method involves growing two populations of cells in cell culture. The first population of cells is grown in growth media containing normal amino acids (“normal media”). The second population of cells is grown in media lacking a standard essential amino acid (such as lysine), but is then supplemented with a non-radioactive, isotopically labeled form of that essential amino acid (such as lysine labeled with ^13C atoms, rather than normal ^12C atoms), which is called “heavy media”. When the two populations of cells are each growing in the medium, they incorporate the amino acids into all of their proteins. The growth of cells maintained in the heavy media is no different from that in normal media. All peptides containing the heavy amino acids are heavier than their normal counterparts. The cells from each of the two populations of cells are lysed. The lysates from each of the two cell populations are then combined. The combined cell lysates are then analyzed by mass spectrometry. Pairs of chemically identical peptides of different stable isotope composition can be differentiated in a mass spectrometer due to their difference in mass. The ratio of peak intensities in the mass spectrum for such peptide pairs reflects the abundance ratio for the two proteins.
This example describes SILAC studies that were performed to compare the effects of three different HDAC inhibitors (Compound A, Compound B, and tubastatin A) to a control on a human multiple myeloma cell line. The HDAC inhibitors were also compared amongst themselves to determine differences in their effects.
A human myeloma cell line MM.1S was grown using either ^12C (light) or ^13C (heavy) lysine containing culture medium. The “heavy” cells were treated with DMSO as the control, and the “light” cells were treated with a single HDAC inhibitor at 37° C. for 6 hours. The heavy and light cells were lysed, and the lysates were mixed in 1:1 ratio and digested with the protease trypsin. The acetylated lysine containing peptides (due to the action of the HDAC inhibitor) in the digested peptide pool were captured by a non-specific anti-acetylated lysine antibody cocktail (the antibodies identify both light and heavy acetylated peptides), and subjected to mass spectrometry analysis in order to identify thousands of individual peptides.
Thousands of peptides were identified in pairs (^12C and ^13C) due to their known mass differences. The amino acid sequence and quantitative ratio (Light/Heavy) of a given peptide in two differentially treated cell lysates were then determined and annotated with their possible protein (gene) sources.
As stated above, three HDAC inhibitors (Compound A, Compound B, and Tubastatin A) were used. Thus, the SILAC method was performed three times, with a different HDAC inhibitor compared to a control each time. Accordingly, there are three pairs of quantitative data in the table below, i.e., Compound A:DMSO, Compound B:DMSO, and Tubastatin A:DMSO. A cut-off of 1.30 fold of change (increase or decrease) was then used to determine “changed” or “+” in the table, and any peptides with a fold of change less than 1.3 fold were determined to be “unchanged” or “0” in the table. Those peptides that were not identified were marked as “NA” in the table. […]

Which results are given for O=C(NO)c1cnc(NC2(c3cccc(F)c3)CCCCC2)nc1 [Compound B, 2-((1-(3-fluorophenyl)cyclohexyl)amino)-N-hydroxypyrimidine-5-carboxamide]?
light to heavy ratio (L/H ratio) of acetylated peptide TACAINK(ac)VLMGR (SEQ ID NO: 584) (Isoform 1 of Protein FAM98A [297], gene FAM98A, inhibitor:DMSO): 0.00 log 2; light to heavy ratio (L/H ratio) of acetylated peptide VLSK(ac)[…] (SEQ ID NO: 294) (Isoform 1 of Protein SET [154], SET, drug:DMSO): 0.00 log 2; light to heavy ratio (L/H ratio) of acetylated peptide […](ac)ALK (SEQ ID NO: 349) (Isoform 1 of RNA-binding protein with serine-rich domain 1 [218], RNPS1, drug:DMSO): −0.46 log 2; light to heavy ratio (L/H ratio), log 2 scale, acetylated peptide […](ac)TDQAQDVK (SEQ ID NO: 765) (Isoform 1 of Signal recognition particle 9 kDa protein [52], gene SRP9, drug:DMSO): 0.00; light to heavy ratio (L/H ratio) of acetylated peptide VLISFK(ac)ANDIEK (SEQ ID NO: 363) (Isoform 2 of Actin-related protein 2/3 complex subunit 5 [90], ARPC5, drug:DMSO): 0.42 log 2; light to heavy ratio (L/H ratio) of acetylated peptide TMSCSDK(ac)ILR (SEQ ID NO: 323) (Isoform 2 of Double-stranded RNA-specific adenosine deaminase [1013], ADAR, drug:DMSO): −0.65 log 2; light to heavy ratio (L/H ratio) of acetylated peptide […](ac)[…] (SEQ ID NO: 336) (Isoform 2 of Fibronectin type-III domain-containing protein 3A [507], FNDC3A, drug:DMSO): 0.40 log 2; light to heavy ratio (L/H ratio) of acetylated peptide K(ac)[…] (SEQ ID NO: 369) (Isoform 2 of Huntingtin-interacting protein K [35], C15orf63, drug:DMSO): 1.00 log 2; light to heavy ratio (L/H ratio) of acetylated peptide GAK(ac)PVVVLQK (SEQ ID NO: 611) (Isoform 2 of Nipped-B-like protein [1000], gene NIPBL, inhibitor:DMSO): 0.00 log 2; light to heavy ratio (L/H ratio) of acetylated peptide LIAGNK(ac)[…] (SEQ ID NO: 512) (Isoform 2 of Nuclear factor related to kappa-B-binding protein [1262], gene NFRKB, inhibitor:DMSO): 0.00 log 2; light to heavy ratio (L/H ratio) of acetylated peptide […](ac)K (SEQ ID NO: 626) (Isoform 2 of Septin-7 [207], gene, inhibitor:DMSO): 0.00 log 2; light to heavy ratio (L/H ratio) of acetylated peptide YQQFK(ac)DFQR (SEQ ID NO: 258) (Isoform 2 of Spliceosome RNA helicase DDX39B [349], SNORD84, DDX39B, drug:DMSO): 0.00 log 2; light to heavy ratio (L/H ratio) of acetylated peptide GLCEK(ac)PLASAAAK (SEQ ID NO: 536) (Isoform 2 of Transportin-3 [513], gene TNPO3, inhibitor:DMSO): 0.00 log 2; light to heavy ratio (L/H ratio), log 2 scale, acetylated peptide LEPLK(ac)PLK (SEQ ID NO: 772) (Isoform 3 of Proline-rich protein 12 [1223], gene PRR12, drug:DMSO): 0.00; light to heavy ratio (L/H ratio) of acetylated peptide […](ac)FLK (SEQ ID NO: 326) (Isoform 5 of Transcriptional regulator ATRX [812], ATRX, drug:DMSO): 0.89 log 2; light to heavy ratio (L/H ratio), log 2 scale, acetylated peptide YNDPIYVK(ac)LEK (SEQ ID NO: 764) (Isoform A of AP-1 complex subunit beta-1 [335], gene AP1B1, drug:DMSO): 0.00; light to heavy ratio (L/H ratio) of acetylated peptide MVAAAK(ac)YAR (SEQ ID NO: 324) (Isoform Heart of ATP synthase subunit gamma mitochondrial [55], ATP5C1, drug:DMSO): −0.80 log 2; light to heavy ratio (L/H ratio) of acetylated peptide VPNDK(ac)YYGAQTVR (SEQ ID NO: 625) (Isoform Mitochondrial of Fumarate hydratase mitochondrial [66], gene FH, inhibitor:DMSO): 0.00 log 2; light to heavy ratio (L/H ratio) of acetylated peptide MMVAGFK(ac)K (SEQ ID NO: 339) (Isoform Short of Heterogeneous nuclear ribonucleoprotein U [524], HNRNPU, drug:DMSO): −0.40 log 2; light to heavy ratio (L/H ratio) of acetylated peptide APQCLGK(ac)FIEIAAR (SEQ ID NO: 338) (Isoform Short of Heterogeneous nuclear ribonucleoprotein U [546], HNRNPU, drug:DMSO): 0.75 log 2; L/H ratio of acetylated peptide (K(ac)GPSVQKR (SEQ ID NO: 413), Isoform 1 of Protein lin-28 homolog B [240], LIN28B): 0.47 log 2; light to heavy ratio (L/H ratio) of acetylated peptide, log 2 scale (K(ac)[…] (SEQ ID NO: 152), Eukaryotic translation initiation factor 5A-2 [68], EIF5A2): 0.00; light to heavy ratio (L/H ratio) of acetylated peptide, log 2 scale (K(ac)[…] (SEQ ID NO: 164), Similar to nonhistone chromosomal protein HMG-1 [30], HMGB1P4): 0.00; light to heavy ratio (L/H ratio) of acetylated peptide, log 2 scale (K(ac)[…] (SEQ ID NO: 246), Endoplasmin [270], HSP90B1): 0.00; L/H ratio of acetylated peptide (K(ac)[…] (SEQ ID NO: 373), T-complex protein 1 subunit zeta [280], CCT6A): 0.67 log 2; L/H ratio of acetylated peptide (KDFIK(ac)TTVK (SEQ ID NO: 388), Protein DEK [367], DEK): 0.38 log 2; L/H ratio of acetylated peptide (KK(ac)FLCVTK (SEQ ID NO: 411), Kelch repeat and BTB domain-containing protein 8 [178], KBTBD8): 1.00 log 2; light to heavy ratio (L/H ratio) of acetylated peptide, log 2 scale (KLPK(ac)[…] (SEQ ID NO: 198), Ras-related protein Rab-5C [184], RAB5C): 0.00; L/H ratio of acetylated peptide (KPEENPASK(ac)FSSASK (SEQ ID NO: 391), Eukaryotic translation initiation factor 4B [586], EIF4B): 0.53 log 2; L/H ratio of acetylated peptide (KSEDTISK(ac)MNDFMR (SEQ ID NO: 409), Isoform 1 of Gamma-interferon-inducible protein 16 [451], IFI16): −0.57 log 2; light to heavy ratio (L/H ratio) of acetylated peptide, log 2 scale (KTPCGEGSK(ac)TWDR (SEQ ID NO: 245), 40S ribosomal protein S20 [75], SNORD54, RPS20): 0.00; light to heavy ratio (L/H ratio) of acetylated peptide IVADK(ac)DYSVTANSK (SEQ ID NO: 317) (L-lactate dehydrogenase B chain [82], LDHB, drug:DMSO): 0.00 log 2; L/H ratio of acetylated peptide (LCK(ac)YIYAK (SEQ ID NO: 390), Eukaryotic translation initiation factor 3 subunit C [553], EIF3C, EIF3CL): 0.45 log 2

Source: US20140357512A1, “HISTONE DEACETYLASE (HDAC) BIOMARKERS IN MULTIPLE MYELOMA” (priority 2013, published 2014)
